Results reported in article PMC7181131, “N-Pyrazinoyl Substituted Amino Acids as Potential Antimycobacterial Agents—the Synthesis and Biological Evaluation of Enantiomers” (Molecules, 2020).
Converted amounts (≈) assume the structure as drawn. Read-outs that look alike come from different tables or passages of the source.

Key:
[1] = test system: Mtb H37Ra ITM-M006710 (ATCC 9431); assay: Microplate Alamar Blue Assay (MABA) microdilution, Mtb H37Ra; assay type: cell-based, Mycobacterium tuberculosis; settings: Mycobacterium tuberculosis
[2] = test system: M. smegmatis DSM 43465 (ATCC 607); assay: Microplate Alamar Blue Assay (MABA) microdilution, M. smegmatis; assay type: cell-based, Mycobacterium smegmatis
[3] = test system: Mycobacterium aurum DSM 43999 (ATCC 23366); assay: Microplate Alamar Blue Assay (MABA) microdilution, M. aurum; assay type: cell-based
HepG2 cell line = assay: HepG2 cytotoxicity, CellTiter 96 (MTS) assay; assay type: cell-based, human; settings: Homo sapiens, read-out: HepG2 IC50
[4] = test system: Staphylococcus epidermidis CCM 4418 (ATCC 12228); assay: Antibacterial microdilution broth method, SE; assay type: cell-based; settings: 24 h, read-out: MIC SE
[5] = test system: Candida albicans CCM 8320 (ATCC 24433); assay: Antifungal microdilution broth method, CA; assay type: cell-based; settings: 24 h, read-out: MIC CA
[6] = test system: Candida krusei CCM 8271 (ATCC 6258); assay: Antifungal microdilution broth method, CK; assay type: cell-based; settings: Pichia kudriavzevii, 24 h, read-out: MIC CK
[7] = test system: Candida parapsilosis CCM 8260 (ATCC 22019); assay: Antifungal microdilution broth method, CP; assay type: cell-based; settings: Lodderomyces parapsilosis, 24 h, read-out: MIC CP
[8] = test system: Candida tropicalis CCM 8264 (ATCC 750); assay: Antifungal microdilution broth method, CT; assay type: cell-based; settings: 24 h, read-out: MIC CT
[9] = test system: Aspergillus fumigatus ATCC 204305; assay: Antifungal microdilution broth method, AF; assay type: cell-based; settings: ATCC204305, 48 h, read-out: MIC AF
[10] = test system: Aspergillus flavus CCM 8363; assay: Antifungal microdilution broth method, AFla; assay type: cell-based; settings: CCM8363, read after 48 h (filamentous fungi), read-out: MIC AFla
Method: 6. In vitro antifungal activity screening
Antifungal activity evaluation was performed using a microdilution broth method according to EUCAST instructions (The European Committee on Antimicrobial Susceptibility Testing) with slight modifications. Eight fungal strains (four yeast and four mould strains) were used for antifungal […]
and Trichophyton interdigitale CCM 8377 (ATCC 9533). Tested strains were purchased from the Czech Collection of Microorganisms (CCM, Brno, Czech Republic) or from the American Type Collection Cultures (ATCC, Manassas, VA, USA). Tested compounds were dissolved in DMSO and diluted in a twofold manner with RPMI 1640 medium, with glutamine and 2% glucose, buffered to pH 7.0 with MOPS (3-morpholinopropane-1-sulfonic acid). The final concentration of DMSO in the testing […]
Static incubation was performed in the dark and in humid atmosphere, at 35±2 °C, for 24 and 48 h (72 and 120 h for Trichophyton interdigitale respectively). Positive controls consisted of test microbe solely, while negative controls consisted of cultivation medium and DMSO. Visual inspection and metabolic activity indicator, Alamar Blue (ThermoFisher Scientific), were used for MIC endpoint evaluation. The internal quality standards, amphotericin B (Sigma-Aldrich) and voriconazole (Toronto research Chemicals, CA) were involved in assays (for MIC of standards see Table S5). All experiments were conducted in duplicates.
For the results to be valid, the difference in MIC for one compound determined from two parallel measurements must not be greater than one step on the dilution scale.

[11] = test system: Lichtheimia corymbifera CCM 8077; assay: Antifungal microdilution broth method, LC; assay type: cell-based; settings: CCM8077, 48 h, read-out: MIC LC
[12] = test system: Trichophyton interdigitale CCM 8377 (ATCC 9533); assay: Antifungal microdilution broth method, TI; assay type: cell-based; settings: 48 h, read-out: MIC TI
[13] = test system: Klebsiella pneumoniae CCM 4415 (ATCC 10031); assay: Antibacterial microdilution broth method, KP; settings: read after 24 h of incubation
[14] = test system: Mycobacterium tuberculosis H37Rv CNCTC My 331/88 (ATCC 27294); assay: Antimycobacterial pre-screening, microdilution broth, Mtb H37Rv; assay type: cell-based; settings: Middlebrook 7H9 broth of declared pH 6.6
[15] = test system: M. kansasii CNCTC My 235/80 (ATCC 12478); assay: Antimycobacterial pre-screening, microdilution broth, M. kansasii; assay type: cell-based; settings: Mycobacterium kansasii, ATCC12478; Middlebrook 7H9 broth of declared pH 6.6
[16] = test system: M. avium ssp. avium CNCTC My 80/72 (ATCC 15769); assay: Antimycobacterial pre-screening, microdilution broth, M. avium; assay type: cell-based; settings: Mycobacterium avium, ATCC15769; Middlebrook 7H9 broth of declared pH 6.6
[17] = pH 6.6, read-out: MIC Mtb H37Ra
[18] = pH 6, calculated from µg/mL, read-out: MIC Mtb H37Ra
[19] = Mycolicibacterium smegmatis, pH 6, read-out: MIC M. smegmatis µg/mL
[20] = Mycolicibacterium smegmatis, pH 6.6, read-out: MIC M. smegmatis
[21] = Mycolicibacterium aurum, pH 6, read-out: MIC M. aurum µg/mL
[22] = Mycolicibacterium aurum, pH 6.6, read-out: MIC M. aurum
[23] = pH 6, Table 4, read-out: Mtb pH 6 MIC
[24] = HepG2, 24 h incubation, CellTiter 96

Row | SMILES | MIC ([1]; pH 6) | MIC ([1]; pH 6, read-out: Mtb pH 6 MIC) | MIC ([1]; pH 6, read-out: MIC Mtb H37Ra) | MIC [1, 17] | MIC [1, 18] | MIC [2, 19] | MIC [2, 20] | MIC [3, 21] | MIC [3, 22] | IC50 (HepG2 cell line; HepG2, 24 h) | MIC [4] | MIC [5] | MIC [6] | MIC [7] | MIC [8] | MIC [9] | MIC [10] | MIC [11] | MIC [12] | MIC KP [13] | other results
1 | COC(=O)[C@H](CCSC)NC(=O)c1cnccn1 [PC-L-Met-Me, methyl (pyrazine-2-carbonyl)-L-methioninate] | < 3.91 µg/mL | 15 µM | < 3.91 µg/mL | ≥ 500 µg/mL | < 14.5 µM | ≥ 500 µg/mL | ≥ 500 µg/mL | 62.5 µg/mL (≈ 232 µM) | ≥ 500 µg/mL | > 100 µM | > 500 µM | > 500 µM | > 500 µM | > 500 µM | > 500 µM | > 500 µM | > 500 µM | > 500 µM | 500 µM (≈ 135 µg/mL) | > 500 µM | 
2 | NNC(=O)c1ccncc1 [INH, isoniazid, reference compound] |  |  | 0.125 to 0.25 µg/mL | 0.125 to 0.25 µg/mL | 0.91 to 1.82 µM |  |  |  |  |  |  |  |  |  |  |  |  |  |  |  | MIC ([2]; Mycolicibacterium smegmatis, pH 6; read-out: MIC M. smegmatis): 7.81 to 15.6 µg/mL (≈ 56.9 to 114 µM); MIC ([2]; Mycolicibacterium smegmatis, pH 6.6; read-out: MIC M. smegmatis): 7.81 to 15.6 µg/mL (≈ 56.9 to 114 µM); MIC ([3]; Mycolicibacterium aurum, pH 6; read-out: MIC M. aurum): 3.91 to 7.81 µg/mL (≈ 28.5 to 56.9 µM); MIC ([3]; Mycolicibacterium aurum, pH 6.6; read-out: MIC M. aurum): 1.95 to 3.91 µg/mL (≈ 14.2 to 28.5 µM); MIC [14]: 0.39 µg/mL (≈ 2.84 µM); MIC [15]: 25 µg/mL (≈ 182 µM); MIC [16]: 25 µg/mL (≈ 182 µM)
3 | COC(=O)[C@@H](CC(C)C)NC(=O)c1cnccn1 [PC-D-Leu-Me, methyl (pyrazine-2-carbonyl)-D-leucinate] | ≥ 125 µg/mL |  | ≥ 125 µg/mL | ≥ 500 µg/mL | ≥ 497 µM | ≥ 125 µg/mL | 250 µg/mL (≈ 995 µM) | ≥ 125 µg/mL | ≥ 500 µg/mL |  | > 500 µM | > 500 µM | > 500 µM | > 500 µM | > 500 µM | > 500 µM | > 500 µM | > 500 µM | > 500 µM | > 500 µM | MIC [14]: > 100 µg/mL; MIC [15]: > 100 µg/mL; MIC [16]: > 100 µg/mL
4 | CCOC(=O)[C@H](Cc1c[nH]c2ccccc12)NC(=O)c1cnccn1 [PC-L-Trp-Et, ethyl (pyrazine-2-carbonyl)-L-tryptophanate] | 125 µg/mL | 125 µM | 125 µg/mL | 125 µg/mL | 369 µM | 250 µg/mL (≈ 739 µM) | 250 µg/mL (≈ 739 µM) | 62.5 µg/mL (≈ 185 µM) | 125 µg/mL (≈ 369 µM) | 147 µM | > 500 µM | > 500 µM | > 500 µM | > 500 µM | > 500 µM | > 500 µM | > 500 µM | > 500 µM | > 500 µM | > 500 µM | 
5 | CCOC(=O)[C@H](Cc1ccc(O)cc1)NC(=O)c1cnccn1 [PC-L-Tyr-Et, ethyl (pyrazine-2-carbonyl)-L-tyrosinate] | 7.81 µg/mL |  | 7.81 µg/mL | 500 µg/mL | 24.8 µM | ≥ 250 µg/mL | ≥ 500 µg/mL | ≥ 250 µg/mL | ≥ 500 µg/mL |  | > 500 µM | > 500 µM | > 500 µM | > 500 µM | > 500 µM | > 500 µM | > 500 µM | > 500 µM | > 500 µM | > 500 µM | MIC [1, 23]: 25 µM; IC50 (HepG2 cell line; [24]): 177 µM
6 | COC(=O)[C@@H](NC(=O)c1cnccn1)[C@@H](C)OC(C)(C)C [PC-L-OtBu-Thr-Me, methyl O-(tert-butyl)-N-(pyrazine-2-carbonyl)-L-threoninate] | ≥ 500 µg/mL | 1690 µM | ≥ 500 µg/mL | ≥ 500 µg/mL | ≥ 1690 µM | ≥ 500 µg/mL | ≥ 500 µg/mL | ≥ 500 µg/mL | ≥ 500 µg/mL | > 500 µM | 62.5 µM (≈ 18.5 µg/mL) | > 500 µM | > 500 µM | > 500 µM | > 500 µM | > 500 µM | > 500 µM | > 500 µM | > 500 µM | > 500 µM | 
7 | COC(=O)[C@H](COCc1ccccc1)NC(=O)c1cnccn1 [PC-L-OBn-Ser-Me, methyl O-benzyl-N-(pyrazine-2-carbonyl)-L-serinate] | 7.81 µg/mL | 25 µM | 7.81 µg/mL | 250 µg/mL | 24.8 µM | ≥ 500 µg/mL | ≥ 500 µg/mL | 62.5 µg/mL (≈ 198 µM) | ≥ 500 µg/mL | 742 µM | > 250 µM | > 250 µM | > 250 µM | > 250 µM | 125 µM (≈ 39.4 µg/mL) | > 250 µM | > 250 µM | > 250 µM | > 250 µM |  | 
8 | C[C@H](NC(=O)c1cnccn1)C(=O)O [PC-L-Ala, (pyrazine-2-carbonyl)-L-alanine] | ≥ 250 µg/mL |  | ≥ 250 µg/mL | ≥ 250 µg/mL | ≥ 1280 µM | 125 µg/mL (≈ 640 µM) | ≥ 250 µg/mL | 62.5 µg/mL (≈ 320 µM) | ≥ 250 µg/mL |  | > 500 µM | > 500 µM | > 500 µM | > 500 µM | > 500 µM | > 500 µM | > 500 µM | > 500 µM | > 500 µM | > 500 µM | MIC [1, 23]: ≥ 1280 µM; IC50 (HepG2 cell line; [24]): > 250 µM
9 | COC(=O)C(NC(=O)c1cnccn1)c1ccccc1 [PC-D/L-Pgl-Me, methyl 2-phenyL-2-(pyrazine-2-carboxamido)acetate] | < 1.95 µg/mL | < 7 µM | < 1.95 µg/mL | ≥ 500 µg/mL | < 7.3 µM | ≥ 250 µg/mL | ≥ 500 µg/mL | 31.2 µg/mL (≈ 115 µM) | ≥ 500 µg/mL | > 1000 µM | > 500 µM | > 500 µM | > 500 µM | > 500 µM | 500 µM (≈ 136 µg/mL) | > 500 µM | > 500 µM | > 500 µM | > 500 µM | > 500 µM | 
10 | CCOC(=O)CNC(=O)c1cnccn1 [PC-Gly-Et, ethyl (pyrazine-2-carbonyl)glycinate] | ≥ 125 µg/mL |  | ≥ 125 µg/mL | ≥ 500 µg/mL | ≥ 598 µM | ≥ 125 µg/mL | 250 µg/mL (≈ 1200 µM) | ≥ 125 µg/mL | ≥ 500 µg/mL |  | > 500 µM | > 500 µM | > 500 µM | > 500 µM | > 500 µM | > 500 µM | > 500 µM | > 500 µM | > 500 µM | > 500 µM | 
11 | CCOC(=O)[C@@H](C)NC(=O)c1cnccn1 [PC-D-Ala-Et, ethyl (pyrazine-2-carbonyl)-D-alaninate] | ≥ 125 µg/mL |  | ≥ 125 µg/mL | ≥ 500 µg/mL | ≥ 560 µM | ≥ 125 µg/mL | ≥ 500 µg/mL | ≥ 125 µg/mL | ≥ 500 µg/mL |  | > 500 µM | > 500 µM | > 500 µM | > 500 µM | > 500 µM | > 500 µM | > 500 µM | > 500 µM | > 500 µM | > 500 µM | 
